“And” between values parts separate entries of the source, which are not always exact repeats. Equal entries are not always repeated. After the bases stand the sugars from the 5' end (letter, count) and the backbone: PS all phosphorothioate, else s phosphorothioate and o phosphodiester by linkage. Methylation of C is not given here. e = 2'-O-(2-methoxyethyl) (MOE); k = constrained ethyl (cEt); d = 2'-deoxy (DNA)
Target: IRF4
Details: ASO

Sequence	target mRNA inhibition (SK-MEL-28, 4 µM)	target mRNA inhibition (MM.1R, 1 µM)	further results
ACGACAGCTGCGGAGC (sugars k3 d10 k3, PS)	27%		
CCCAAGTGAGGTCACC (sugars k3 d10 k3, PS)	20%		
GAACAGTAACTTGACT (sugars k3 d10 k3, PS)	4%		
CTCTCCAGGTGGCTCA (sugars k3 d10 k3, PS)	13%		
ACTTTTAGAGAGGAGA (sugars kddddddddddkekek, PS)		32%	
CTGGTAACTGTATGGA (sugars k3 d10 k3, PS)		17%	
ACTGGCATCGAGACGG (sugars k3 d10 k3, PS)	79%		
ACATTAAAGGGTAAGC (sugars k3 d10 k3, PS)		-23%	
CTCCAGCTTCGGTCGA (sugars k3 d10 k3, PS)		9%	
ACAGAGGTGGGAGTAC (sugars k3 d10 k3, PS)	-74%		
GCAAAACCAGTACAGT (sugars k3 d10 k3, PS)	58%	11%	target mRNA inhibition (MM.1R, 0.0625 µM): 3%; target mRNA inhibition (MM.1R, 0.074 µM): 17%; target mRNA inhibition (MM.1R, 0.222 µM): 0%; target mRNA inhibition (MM.1R, 0.25 µM): 6%; target mRNA inhibition (MM.1R, 0.666 µM): 4%; target mRNA inhibition (MM.1R, 2 µM): 13%; target mRNA inhibition (MM.1R, 4 µM): 26%
TGGTACACCTCTTCAC (sugars k3 d10 k3, PS)	32%		
CACATCACTTGGTCAA (sugars k3 d10 k3, PS)	72%		
TTACGAGAGGGTCTGA (sugars k3 d10 k3, PS)	51%		
CAGTTGTAAATGAGTC (sugars kkdddddddddekeke, PS)		72%	target mRNA inhibition (H929, 0.00067 µM): 1%; target mRNA inhibition (H929, 0.002 µM): 27%; target mRNA inhibition (H929, 0.00667 µM): 45%; target mRNA inhibition (H929, 0.02 µM): 60%; target mRNA inhibition (H929, 0.04 µM): 34%; target mRNA inhibition (KMS11, 0.2 µM): 83% and 90%; target mRNA inhibition (MM.1R, 0.074 µM): 12%; target mRNA inhibition (MM.1R, 0.222 µM): 39%; target mRNA inhibition (MM.1R, 0.666 µM): 65%; target mRNA inhibition (MM.1R, 2 µM): 88%
CTATAGTGTTCCAGGA (sugars e1 k2 d9 k2 e2, PS)		8%	
ACATATTCAATGCACC (sugars k3 d10 k3, PS)	47%		
TGTAGTATGAGAAACG (sugars k2 d9 e3 k2, PS)		7%	
TCAGAAATCACGAGGT (sugars k3 d10 k3, PS)			target mRNA inhibition (MM.1R, 0.0625 µM): -11%; target mRNA inhibition (MM.1R, 0.25 µM): -5%; target mRNA inhibition (MM.1R, 4 µM): 37%
GGCACAATTCTCTGAG (sugars k3 d10 k3, PS)	43%		
AATAGAGGAATGGCGG (sugars k3 d10 k3, PS)	53%		
CTGTAGGGCGACTAAC (sugars k3 d10 k3, PS)	49%		
GCCATGGCTGATCGCT (sugars k3 d10 k3, PS)	30%		
TGCTTGAGGTTTTCCT (sugars kkdddddddddkdkdk, PS)		45%	

Sequence	target mRNA inhibition (SK-MEL-28, 4 µM)	target mRNA inhibition (MM.1R, 1 µM)	further results
CACTATGCCTGAACTG (sugars k3 d10 k3, PS)	10%		
TCACATGATAAGGCAC (sugars k3 d10 k3, PS)		19%	
CGCATAGAGCCCGTCG (sugars k3 d10 k3, PS)	53%		
GGAAGTTTACACTGGA (sugars kkdddddddddekeke, PS)		64%	target mRNA inhibition (MM.1R, 0.074 µM): 4%; target mRNA inhibition (MM.1R, 0.222 µM): 15%; target mRNA inhibition (MM.1R, 0.666 µM): 40%; target mRNA inhibition (MM.1R, 2 µM): 64%
ATGGATAGTTTCTCAT (sugars k3 d10 k3, PS)	25%		
ATTGAGGCATACAGTG (sugars k3 d10 k3, PS)	30%		
ACCTCAGTTTGTGAAG (sugars k3 d9 k3 e1, PS)		10%	
GAGCACCGCGCCGGAG (sugars k3 d10 k3, PS)	7%		
CTGAAGACAATGTTGT (sugars k3 d10 k3, PS)	55%		
CAGAATGTTTCGACAT (sugars k3 d10 k3, PS)		14%	
AGCAATTAGCTCTTCT (sugars k3 d10 k3, PS)		11%	
TACCAGCTCAATAATC (sugars k3 d10 k3, PS)		-27%	
TTCAACAGCACTGTCC (sugars k3 d10 k3, PS)	65%		
GTTGTAAATGAGTCGG (sugars k3 d10 k3, PS)	87% and 81%		
GTGTAATGTAGGGATA (sugars k3 d10 k3, PS)	64%		
CATCAGAAATCACGAG (sugars k3 d10 k3, PS)	55%		
GAAGTTTACACTGGAT (sugars kkddddddddddkeke, PS)		46%	
CAGTGCTCTTTAACAA (sugars k3 d10 k3, PS)	37%		
TGGTAGGTCAAACTCC (sugars k3 d10 k3, PS)	-13%		
GAAAGATTCAGCCTCT (sugars k3 d10 k3, PS)	45%		
TCTGAATTGTTACTAA (sugars k3 d10 k3, PS)	35%		
GAGCTCTTCCAGATCC (sugars k3 d10 k3, PS)	5%		
TAGTATGAGAAACGGC (sugars kkdddddddddekeke, PS)		50%	
ATCAATGATGGCAGTC (sugars k3 d10 k3, PS)	57%		

Sequence	target mRNA inhibition (SK-MEL-28, 4 µM)	target mRNA inhibition (MM.1R, 1 µM)	further results
CTGTACACTTTGTACG (sugars k3 d10 k3, PS)	34%		
CGCCCAATCACCTTCC (sugars k3 d10 k3, PS)		-19%	
CCAGGATTCGCCATGG (sugars k3 d10 k3, PS)		13%	
CCTGGCGGAGCATCAA (sugars k3 d10 k3, PS)	42%		
CAAGACAAATCTTCTG (sugars k3 d10 k3, PS)	13%		
ACACAGGCTAATCAGA (sugars k3 d10 k3, PS)	7%		
TTACCATTTTCACAAG (sugars k4 d8 k4, PS)	7%		
TGATAAAGGCTGAACT (sugars k3 d10 k3, PS)	41%		
CAGTGGTGGCCGCGGG (sugars k3 d10 k3, PS)	27%		
TGTTACCGATGCTTCA (sugars kkdddddddddkdkdk, PS)		35% and 26%	
CCCTTCCCGCTCCGAA (sugars k3 d10 k3, PS)	16%		
ACACATTAAAGGGTAA (sugars k3 d10 k3, PS)	11%		
CAATACTGTAAGGGCT (sugars k3 d10 k3, PS)	56%		
AACCAGCCCTTGCTGC (sugars k3 d10 k3, PS)	21%		
GCAAACGACAAGTGGC (sugars k3 d10 k3, PS)		-15%	
GAGTACCCAAGACTCC (sugars k3 d10 k3, PS)	25%		
ACGAGGTAAATCTTCA (sugars k3 d10 k3, PS)	61%		
GCATTTTATCATCCGA (sugars kkdddddddddkekek, PS)		48%	
GCCTTAATGTTCAGCT (sugars k3 d10 k3, PS)	49%		
TCGGTCCACATACCTG (sugars k3 d10 k3, PS)	39%		
TACCTACAAGCAGTCA (sugars k3 d10 k3, PS)	56%		
CATCACCGAACACACC (sugars k3 d10 k3, PS)	24%		
GACACATTTTCTGGGT (sugars k3 d10 k3, PS)	53% and 64%		
CTTGAGGTTTTCCTAA (sugars k3 d10 k3, PS)	40%		

Sequence	target mRNA inhibition (SK-MEL-28, 4 µM)	target mRNA inhibition (MM.1R, 1 µM)	further results
ATTCTTAGAATGCATA (sugars k3 d10 k3, PS)	38%		
TCCCGAGGCCGGAGAC (sugars k3 d10 k3, PS)	-27%		
CGCTTTCACTAAAGTC (sugars k3 d10 k3, PS)	71%		
GCCTAGCATGGATCCT (sugars k3 d10 k3, PS)		-4%	
CTGCTTGAGGTTTTCC (sugars kkkdddddddddkeke, PS)		50%	
AGATAGGAAGCACTGG (sugars k3 d10 k3, PS)	46%		
TGCCTTGTGACATAAA (sugars k3 d10 k3, PS)	45%		
GTATTTATAACCGGTA (sugars k3 d10 k3, PS)	67%	34% and 36% and 37%	target mRNA inhibition (MM.1R, 0.0625 µM): -7% and 4% and -9%; target mRNA inhibition (MM.1R, 0.074 µM): -19%; target mRNA inhibition (MM.1R, 0.222 µM): 4%; target mRNA inhibition (MM.1R, 0.25 µM): 8% and 9% and 21%; target mRNA inhibition (MM.1R, 0.666 µM): 7%; target mRNA inhibition (MM.1R, 2 µM): 33%; target mRNA inhibition (MM.1R, 4 µM): 77% and 74% and 75%
CGCCAGCCAGATGTTT (sugars k3 d10 k3, PS)		-15%	
AGTTCATGTAAAGTCT (sugars kkdddddddddkdkdk, PS)		32% and 47%	
ACGGACTGGAACATTG (sugars k3 d10 k3, PS)		38%	
TTGAAATGGAGCATCC (sugars k3 d10 k3, PS)	22%		
ACCAATGGCAGCACCG (sugars k3 d10 k3, PS)	61%		
GGAAGTTTACACTGGA (sugars kkkdddddddddkeke, PS)		78%	target mRNA inhibition (MM.1R, 0.074 µM): 22%; target mRNA inhibition (MM.1R, 0.222 µM): 46%; target mRNA inhibition (MM.1R, 0.666 µM): 74%; target mRNA inhibition (MM.1R, 2 µM): 91%
AGTAACTTGACTTGAG (sugars k3 d10 k3, PS)		-3%	
CTAGTCGCGCAAGTCT (sugars k3 d10 k3, PS)		-4%	
CGAAACACAGTCTGCT (sugars k3 d10 k3, PS)	53%		
TCACCTGGCAACCTGC (sugars k3 d10 k3, PS)	25%		
GTTACTCACGAGCACC (sugars k3 d10 k3, PS)		-17%	
GGACTCCGGGAGCCTG (sugars k3 d10 k3, PS)		-8%	
TCAGTTTGTGAAGCAT (sugars kddddddddddkekek, PS)		21%	
CTTCAACAGCACTGTC (sugars k3 d10 k3, PS)	56%		
TGTCAAACCCTACTGG (sugars k3 d10 k3, PS)	23%		

Source: the OligoGym collection
